Patent US10626178B2, “Treatment of mood and stress related disorders” (priority 2013, dated 2020)

Experiments:
DG microglia = DG microglia number and morphology after unpredictable stress (US/CUS); type: in vivo, mice
Experimental: (§1) Subjects were exposed to chronic unpredictable stress (CUS), consisting of daily exposure to two stressors in a random order over a 5-week period. The effect of a shorter period of unpredictable stress was examined by exposing mice to various combinations of 2-3 of the same stressors over a period of 2 days. The list of CUS stressors included: cage shaking for 1 h with loud music and lights, on, lights on during the entire night (12 h), lights-off for 3 h during the daylight phase, flashing (stroboscopic) light for 6 h, placement in 4° C. cold room for 1 h, mild restraint (in small cages) for 2 h, 45° cage tilt for 14 h, wet cage for 14 h, exposure to fox, ferret, bobcat, or coyote smell for 2 h, noise in the room for 3 h, and water deprivation for 12 h during the dark period.
Animals were perfused trans-cardially with cold PBS followed by 4% paraformaldehyde in 0.1 M PBS, and the brains were quickly removed and placed in 4% paraformaldehyde. After 24 h the brains were placed in 30% sucrose solution in PBS and then frozen in OCT.
In some experiments microglia were visualized using an antibody to the microglia activation marker ionized calcium-binding adapter molecule-1 (Iba-1). Brain sections were first fixed in 2% paraformaldehyde, and after 3 PBS washes they were incubated over-night in 3% normal goat serum in 5% BSA with the primary antibody (rabbit anti Iba-1 1:220, Wako, Japan) at 4° C. Sections were then incubated with the secondary antibody (goat anti rabbit, 1:200; Invitrogen) for 1 hour at RT and counter-stained with DAPI (Sigma, Israel).
(§2) Images were captured using Nikon Eclipse fluorescent microscope and CI Nikon confocal microscope and camera. The number of GFP-labeled microglia (and in some studies the number of BrdU-labeled microglia and other cells), as well and the microglial soma area were automatically measured at ×10 magnification in a defined area exclusively containing the entire Dentate Gyrus or prelimbic cortex, for each slide, using Nikon Imaging Elements Software (NIS-Elements). Microglia processes length was measured by capturing images at 40× magnification and by manual tracing of the processes of 4 randomly selected cells/section their processes using the NIS Elements software.

CUS-exposed mice [1] = test: Social exploration test; type: in vivo; conditions: for social exploration time: 5-weeks CUS-exposed mice treated for 2 additional weeks of CUS
Experimental: as §1, with “dark period. Each subject was placed in an observation cage and allowed to habituate to the cage for 15 min, following which a male juvenile was placed in the cage. Social exploration, defined as the time of near contact between the nose of the subject and the juvenile conspecific, was then recorded for three minutes, using computerized in-house software.” for “dark period.”

CUS-exposed mice [2] = test: Sucrose preference test; type: in vivo
Experimental: as §1, with “dark period. Following baseline adaptation to sucrose for several days, animals were presented in the beginning of the dark circadian phase with two graduated drinking tubes, one containing tap water and the other 2% sucrose solution for 3 hr. Sucrose preference was calculated as the percent of sucrose consumption out of the total drinking volume.” for “dark period.”

CUS-exposed mice [3] = test: CUS model, overall depressive-like behavior; type: in vivo
Experimental: as §1

CUS-exposed mice [4] = test: Porsolt forced swim test; type: in vivo
Experimental: Subjects were exposed to chronic unpredictable stress (CUS), consisting of daily exposure to two stressors in a random order over a 5-week period. […] The list of CUS stressors included: cage shaking for 1 h with loud music and lights, on, lights on during the entire night (12 h), lights-off for 3 h during the daylight phase, flashing (stroboscopic) light for 6 h, placement in 4° C. cold room for 1 h, mild restraint (in small cages) for 2 h, 45° cage tilt for 14 h, wet cage for 14 h, exposure to fox, ferret, bobcat, or coyote smell for 2 h, noise in the room for 3 h, and water deprivation for 12 h during the dark period.
Mice were placed in 20 cm diameter glass cylinder filled to 10 cm with 21° C. water and their behavior was analyzed for five min. The time spent in immobility, defined as the absence of all movement except motions required to maintain the animal's head above the water, and the latency to first immobility episode were recorded using an in-house computerized software.

DG cells = test: BrdU labeling of DG cells (neurogenesis / proliferation); type: in vivo, mice; conditions: M-CSF 100 μg/kg i.p. daily for 5 days
Experimental: BrdU immunofluorescent staining was performed on 8 μm frozen brain sections, fixated in 50% formamide/2×SCC (0.3M NaCl and 0.03 M sodium citrate) for 2 hours at 65° C. After one wash with 2×SCC, sections were incubated in 2 N HCl for 30 minutes at 37° C. Sections were then rinsed in 0.1 M boric acid at pH 8.5 and washed 3 times in PBS, following which they were incubated in 3% normal goat serum in 1% BSA/0.1% Triton for 30 min at room temperature and then incubated with rat monoclonal anti-BrdU antibody (1:200, AbD serotec) for 48 hours at 4° C. […]
as §2

[5] = 5-weeks CUS, drug beginning two days before and throughout CUS
[6] = 5-weeks CUS-exposed mice treated for 2 additional weeks of CUS (imipramine, minocycline in drinking water; GM-CSF i.p. 3 time/week)
[7] = 5-weeks CUS-exposed mice treated for 2 additional weeks of CUS
[8] = CUS-exposed mice, M-CSF 100 μg/kg i.p. daily for 5 days

IL-1β: microglia-stimulating cytokine interleukin-1β, given intra-hippocampally
microglia number and morphology (DG microglia; acute intra-hippocampal administration in WT mice): mimicked the effects of short-term US on microglia number and morphology

CN(C)CCCN1c2ccccc2CCc2ccccc21 [imipramine, reference compound]
social exploration time (CUS-exposed mice [1]): further reductions were evident | social exploration (CUS-exposed mice [1]; [5]): prevented the CUS-induced reductions | sucrose preference (CUS-exposed mice [2]; [5]): prevented the CUS-induced reductions in sucrose preference | effect on established CUS-induced depressive-like behavior (CUS-exposed mice [3]; administration to mice with established CUS-induced depressive-like behavior): produced minimal beneficial effects | DG microglia number (DG microglia; [6]): no differences from any of the groups | hippocampal microglia number (DG microglia; [5]): blocked the CUS-induced decline in hippocampal microglia number | microglia processes length (DG microglia; [5]): blocked the CUS-induced decline | microglia soma size (DG microglia; [5]): blocked the CUS-induced decline | number of hippocampal (DG) microglia (DG microglia; 2 days of US exposure, drug via drinking water beginning 2 days before US initiation (minocycline 40, imipramine 20 mg/kg/day)): completely reversed the increase in hippocampal microglia | floating time (CUS-exposed mice [4]; [7]): showed no difference from non-stressed controls

GM-CSF
social exploration time (CUS-exposed mice [1]): induced an elevation in the social exploration time | sucrose preference (CUS-exposed mice [2]; [7]): completely reversed the suppressive effects of CUS on sucrose preference | DG microglia number (DG microglia; [6]): significantly greater number of microglia as compared with the control CUS-exposed mice | floating time (CUS-exposed mice [4]; [7]): showed no difference from non-stressed controls

B1: M-CSF: Macrophage colony-stimulating factor, homodimer glycoprotein; microglia activator (protein, UniProt P09603 33-554, looked up)
Macrophage colony-stimulating …: EEVSEYCSHMIGSGHLQSLQRLIDSQMETSCQITFEFVDQEQLKDPVCYLKKAFLLVQDIMEDTMRFRDNTPNAIAIVQLQELSLRLKSCFTKDYEEHDKACVRTFYETPLQLLEKVKNVFNETKNLLDKDWNIFSKNCNNSFAECSSQDVVTKPDCNCLYPKAIPSSDPASVSPHQPLAPSMAPVAGLTWEDSEGTEGSSLLPGEQPLHTVDPGSAKQRPPRSTCQSFEPPETPVVKDSTIGGSPQPRPSVGAFNPGMEDILDSAMGTNWVPEEASGEASEIPVPQGTELSPSRPGGGSMQTEPARPSNFLSASSPLPASAKGQQPADVTGTALPRVGPVRPTGQDWNHTPQKTDHPSALLRDPPEPGSPRISSLRPQGLSNPSTLSAQPQLSRSHSSGSVLPLGELEGRRSTRDRRSPAEPEGGPASEGAARPLPRFNSVPLTDTGHERQSEGSFSPQLQESVFHLLVPSVILVLLAVGGLLFYRWRRRSHQEPQRADSPLEQPEGSPLTQDDRQVELPV
generation of new (BrdU-labeled) DG cells that are not microglia (DG cells; CUS-exposed mice): marked increase in the generation of new (BrdU-labeled) DG cells that are not microglia | microglia proliferation (GFP microglia co-labeled for BrdU) (DG cells): overall increase in microglia proliferation | social exploration (CUS-exposed mice [1]; [8]): completely reversed the suppressive effects of CUS | sucrose preference (CUS-exposed mice [2]; [8]): completely reversed the suppressive effects of CUS on sucrose preference | depressive-like behavioral symptoms (CUS-exposed mice [3]; CUS-exposed mice): completely reversed the depressive symptoms after a few days of treatment | depressive symptoms (CUS-exposed mice [3]; non-stressed mice): did not cause depressive symptoms in non-stressed mice | DG microglia number (DG microglia; control and CUS-exposed mice, M-CSF 100 μg/kg i.p. daily for 5 days): overall increase in DG microglia number, completely normalizing microglia number in CUS-exposed mice | floating time (CUS-exposed mice [4]; [8]): reversed | latency to first float (CUS-exposed mice [4]; [8]): did not reach statistical significance
